According to patent US20260265195A1, “SARM1 MODULATORS, PREPARATIONS, AND USES THEREOF” (SIRONAX LTD, priority 2022, published 2026):
pIC50: −log10 of the molar value.

Biological target: T1, SARM1 (50-724) (Homo sapiens, UniProt Q6SZW1)
T1 construct: Purified SARM1 (50-724) with a final concentration of 2 nM
T1 sequence (Q6SZW1 50-724): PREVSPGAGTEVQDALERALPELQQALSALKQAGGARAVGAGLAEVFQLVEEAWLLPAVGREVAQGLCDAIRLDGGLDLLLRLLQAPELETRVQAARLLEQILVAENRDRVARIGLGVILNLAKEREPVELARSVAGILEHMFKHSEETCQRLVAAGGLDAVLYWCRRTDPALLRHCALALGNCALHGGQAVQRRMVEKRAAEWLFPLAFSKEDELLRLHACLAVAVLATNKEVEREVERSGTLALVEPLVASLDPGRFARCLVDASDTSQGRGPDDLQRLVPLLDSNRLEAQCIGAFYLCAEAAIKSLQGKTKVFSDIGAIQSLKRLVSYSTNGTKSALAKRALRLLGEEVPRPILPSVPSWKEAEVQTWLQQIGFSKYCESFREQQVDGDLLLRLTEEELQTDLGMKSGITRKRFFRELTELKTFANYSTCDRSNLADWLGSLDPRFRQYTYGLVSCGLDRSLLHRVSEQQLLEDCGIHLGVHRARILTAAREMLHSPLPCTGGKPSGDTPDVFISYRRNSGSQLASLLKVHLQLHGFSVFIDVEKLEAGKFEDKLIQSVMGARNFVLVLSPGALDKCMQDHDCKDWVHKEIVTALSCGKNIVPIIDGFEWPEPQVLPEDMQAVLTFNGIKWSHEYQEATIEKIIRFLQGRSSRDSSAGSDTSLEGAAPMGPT
Test: SARM1 (50-724) enzymatic assay (NMN-activated NAD+ hydrolysis, LC-MS/MS readout)
Assay type: biochemical
Settings: purified SARM1 (50-724) 2 nM, 200 μM NMN activator, 100 μM NAD+ substrate, 1 h at room temperature, read-out: IC50 (SARM1 inhibitory activity)
Summary of the method: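 NMN-activated NAD+ hydrolysis: compound pre-incubated 15 min at room temperature with 2 nM SARM1 (50-724) at 1% DMSO in DPBS; 100 μM NAD+ plus 200 μM NMN added and reacted 1 h at RT. Acetonitrile quench, LC-MS/MS readout.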

SMILES | pIC50
Cc1ccc2[nH]c(C(=O)N(C)C3C[C@@H](C)O[C@@H](C)C3)c(CO)c2c1 (stereo partly drawn) [Compound 42, N-((2R,6S)-2,6-dimethyltetrahydro-2H-pyran-4-yl)-3-(hydroxymethyl)-N,5-dimethyl-1H-indole-2-carboxamide] | ≤ 6.00
CS(=O)(=O)NCCN(C(=O)c1nc2cc(C(F)(F)F)ccc2[nH]1)c1cccc(Cl)c1Cl [Compound 147, N-(2,3-dichlorophenyl)-N-(2-(methylsulfonamido)ethyl)-5-(trifluoromethyl)-1H-benzo[d]imidazole-2-carboxamide] | ≥ 7.00
CNCCN(C(=O)c1nc2cc(C(F)(F)F)ccc2[nH]1)c1cccc(Cl)c1Cl [Compound 121, N-(2,3-dichlorophenyl)-N-(2-(methylamino)ethyl)-5-(trifluoromethyl)-1H-benzo[d]imidazole-2-carboxamide] | 6.30 to 7.00
CC(C)(O)CN(C(=O)c1nc2cc(C(F)(F)F)ccc2[nH]1)c1cccc(Cl)c1Cl [Compound 168, N-(2,3-dichlorophenyl)-N-(2-hydroxy-2-methylpropyl)-5-(trifluoromethyl)-1H-benzo[d]imidazole-2-carboxamide] | ≥ 7.00
Cc1ccc2[nH]c(C(=O)N(C)c3c(F)cccc3F)c(CO)c2c1 [Compound 2, N-(2,6-difluorophenyl)-3-(hydroxymethyl)-N,5-dimethyl-1H-indole-2-carboxamide] | 6.00 to 6.30
O=C(c1nc2cc(C(F)(F)F)ccc2[nH]1)N(CCO)c1cccc(F)c1Cl [Compound 157, N-(2-chloro-3-fluorophenyl)-N-(2-hydroxyethyl)-5-(trifluoromethyl)-1H-benzo[d]imidazole-2-carboxamide] | ≥ 7.00
Cc1ccc2[nH]c(C(=O)N(CCO)c3cccc(Cl)c3Cl)nc2c1-c1cc[nH]c(=O)c1 [Compound 164] | 6.30 to 7.00
O=C(c1nc2cc(C(F)(F)F)ccc2[nH]1)N(CC(F)(F)CO)c1cccc(F)c1Cl [Compound 185, N-(2-chloro-3-fluorophenyl)-N-(2,2-difluoro-3-hydroxypropyl)-5-(trifluoromethyl)-1H-benzo[d]imidazole-2-carboxamide] | ≥ 7.00
Cc1ccc2[nH]c(C(=O)N(C)C3CCCCC3)nc2c1 [Compound 47, N-cyclohexyl-N,5-dimethyl-1H-benzo[d]imidazole-2-carboxamide] | 6.30 to 7.00
O=C(c1nc2cc(-c3ccn[nH]3)ccc2[nH]1)N(CC1COC1)c1cccc(Cl)c1Cl [Compound 119] | 6.30 to 7.00
COc1ccccc1N(C)C(=O)c1[nH]c2ccc(C)cc2c1CO [Compound 13, 3-(hydroxymethyl)-N-(2-methoxyphenyl)-N,5-dimethyl-1H-indole-2-carboxamide] | ≤ 6.00
Cc1ccc2[nH]c(C(=O)N(C)c3ccccc3C#N)c(CO)c2c1 [Compound 7, N-(2-cyanophenyl)-3-(hydroxymethyl)-N,5-dimethyl-1H-indole-2-carboxamide] | ≤ 6.00
O=C(c1nc2cc(Cl)cc(F)c2[nH]1)N(c1cccc(F)c1Cl)C1CCS(=O)(=O)C1 (racemic) [Compound 191] | ≥ 7.00
O=C(c1nc2cc(C(O)C3CC3)ccc2[nH]1)N(CCO)c1cccc(Cl)c1Cl (racemic) [Compound 162] | ≤ 6.00
CN(C(=O)c1cc2ccccc2[nH]1)C1CCCC1 [Compound 54, N-cyclopentyl-N-methyl-1H-indole-2-carboxamide] | ≤ 6.00
O=C(c1nc2cc(C3CC3)ccc2[nH]1)N(CC(F)(F)CO)c1ccc(F)c(F)c1Cl [Compound 222] | ≥ 7.00
Cc1c(F)cccc1N(CCO)C(=O)c1nc2cc(C(F)(F)F)ccc2[nH]1 [Compound 158, N-(3-fluoro-2-methylphenyl)-N-(2-hydroxyethyl)-5-(trifluoromethyl)-1H-benzo[d]imidazole-2-carboxamide] | ≥ 7.00
CN=S(C)(=O)CCCN(C(=O)c1nc2cc(C(F)(F)F)ccc2[nH]1)c1cccc(F)c1Cl (stereo not drawn) [Compound 225, N-(2-chloro-3-fluorophenyl)-N-(3-(N,S-dimethylsulfonimidoyl)propyl)-5-(trifluoromethyl)-1H-benzo[d]imidazole-2-carboxamide] | ≥ 7.00
Cc1ccc2[nH]c(C(=O)N(C)C3CCCC3)nc2c1 [Compound 46, N-cyclopentyl-N,5-dimethyl-1H-benzo[d]imidazole-2-carboxamide] | 6.30 to 7.00
O=C(c1nc2cc(C(F)(F)F)ccc2[nH]1)N(Cc1cc[nH]n1)c1cccc(Cl)c1Cl [Compound 132, N-((1H-pyrazol-3-yl)methyl)-N-(2,3-dichlorophenyl)-5-(trifluoromethyl)-1H-benzo[d]imidazole-2-carboxamide] | ≥ 7.00
Cc1ccc2[nH]c(C(=O)N(C)CCC(C)C)c(CNc3ccccn3)c2c1 [Compound 88, N-isopentyl-N,5-dimethyl-3-((pyridin-2-ylamino)methyl)-1H-indole-2-carboxamide] | ≤ 6.00
O=C(c1nc2cc(C(F)(F)F)ccc2[nH]1)N(CC1COC1)c1cccc(Cl)c1Cl [Compound 105, N-(2,3-dichlorophenyl)-N-(oxetan-3-ylmethyl)-5-(trifluoromethyl)-1H-benzo[d]imidazole-2-carboxamide] | ≥ 7.00
Cc1ccc2c(CO)c(C(=O)N(C)C3CCCC3)n(CC(N)=O)c2c1 [Compound 23, 1-(2-amino-2-oxoethyl)-N-cyclopentyl-3-(hydroxymethyl)-N,6-dimethyl-1H-indole-2-carboxamide] | ≤ 6.00
Cc1ccc2[nH]c(C(=O)N(C)c3ccc(Cl)cc3)c(CO)c2c1 [Compound 25, N-(4-chlorophenyl)-3-(hydroxymethyl)-N,5-dimethyl-1H-indole-2-carboxamide] | ≤ 6.00
